Results: PMC3682108 (Journal of Infection and Chemotherapy, 2012)
Values after ≈ are worked out from the molar mass of the structure shown. Where two headings read alike, the source gives them in different places.

Tests used:
baseline MRSA isolates = experiment: microbe, parasite or virus in culture; format: cell-based, Staphylococcus aureus
Safety evaluation = format: in vivo, Japanese patients; settings: for Recipients with CPK levels >200 U/l: human, in vivo; for Maximum CPK level in the recipient with CPK >500 U/l: single patient per group
[1] = tested on: methicillin-resistant Staphylococcus aureus (MRSA); format: in vivo, Japanese patients; settings: for Clinical success %, Wound or burn: MITT-MRSA, daptomycin 4 mg/kg qd n/N 31/38, vancomycin 1 g bid 11/13, at TOC; for Clinical response, wound or burn: daptomycin 4 mg/kg qd, wound or burn n = 38
[2] = tested on: methicillin-resistant Staphylococcus aureus (MRSA); experiment: EAC-assessed microbiological response at test-of-cure, MITT-MRSA population; format: in vivo, Japanese patients; settings: daptomycin n/N 0/2, vancomycin 0/1, at TOC
[3] = Population pharmacokinetics of daptomycin in plasma by baseline renal function; settings: 4 mg/kg once daily
[4] = 74 baseline MRSA isolates at screening, broth microdilution, CLSI M7-A7

Compound | MIC range (baseline MRSA isolates; [4]) [µg/mL] | MIC90 (baseline MRSA isolates; Staphylococcus aureus, MRSA) [µg/mL] | MIC90 (baseline MRSA isolates; [4]) [µg/mL] | Recipients with CPK levels >200 U/l (Safety evaluation) [%] | Maximum CPK level in the recipient with CPK >500 U/l (Safety evaluation) | Clinical success %, Wound or burn [1] [%] | Microbiological success %, Other infection [2] [%] | also measured
CC(=O)NC[C@H]1CN(c2ccc(N3CCOCC3)c(F)c2)C(=O)O1 [linezolid] | 1 to 4 | 2 (≈ 5.93 µM) |  |  |  |  |  | 
NCC[C@H](O)C(=O)N[C@@H]1C[C@H](N)[C@@H](O[C@H]2O[C@H](CN)CC[C@H]2N)[C@H](O)[C@H]1O[C@H]1O[C@H](CO)[C@@H](O)[C@H](N)[C@H]1O [arbecacin] | 0.25 to 4 | 2 (≈ 3.62 µM) |  |  |  |  |  | 
CN[C@H](CC(C)C)C(=O)N[C@H]1C(=O)N[C@@H](CC(N)=O)C(=O)N[C@H]2C(=O)N[C@H]3C(=O)N[C@H](C(=O)N[C@H](C(=O)O)c4cc(O)cc(O)c4-c4cc3ccc4O)[C@H](O)c3ccc(c(Cl)c3)Oc3cc2cc(c3O[C@@H]2O[C@H](CO)[C@@H](O)[C@H](O)[C@H]2O[C@H]2C[C@](C)(N)[C@H](O)[C@H](C)O2)Oc2ccc(cc2Cl)[C@H]1O [Vancomycin, vancomycin] | 0.5 to 2 |  | 1 (≈ 0.69 µM) | 9.1 | 592 U/l | 84.6 | 0.0 | 
Cc1onc(-c2ccccc2)c1C(=O)N[C@@H]1C(=O)N2[C@@H]1SC(C)(C)[C@@H]2C(=O)O [oxacillin] |  | > 128 |  |  |  |  |  | 
teicoplanin | 0.25 to 8 |  | 4 |  |  |  |  | 
CCCCCCCCCC(=O)N[C@@H](Cc1c[nH]c2ccccc12)C(=O)N[C@H](CC(N)=O)C(=O)N[C@@H](CC(=O)O)C(=O)N[C@@H]1C(=O)NCC(=O)N[C@@H](CCCN)C(=O)N[C@@H](CC(=O)O)C(=O)N[C@H](C)C(=O)N[C@@H](CC(=O)O)C(=O)NCC(=O)N[C@H](CO)C(=O)N[C@@H]([C@H](C)CC(=O)O)C(=O)N[C@@H](CC(=O)c2ccccc2N)C(=O)O[C@@H]1C [Daptomycin] |  |  |  | 9.1 | 2,545 U/l | 81.6 | 0.0 | MIC90 (baseline MRSA isolates; baseline isolates): 0.5 µg/mL (≈ 0.309 µM); MIC range (baseline MRSA isolates; baseline isolates): 0.25 to 1 µg/mL; Drug-related serious adverse event (kind) (Safety evaluation; one patient, just after initial dosing, resolved 4 days after discontinuation): anaphylactic shock; Clinical response, wound or burn ([1]; baseline MRSA daptomycin MIC 0.25): 87.5%; Clinical response, wound or burn ([1]; baseline MRSA daptomycin MIC 0.5): 82.4%; Clinical response, wound or burn ([1]; baseline MRSA daptomycin MIC 1): 50.0%; Mean CL/wt lower than in patients with normal renal function (CLcr >80 ml/min) ([3]; mild renal impairment (CLcr 50–80 ml/min)): approximately 15%; Mean CL/wt lower than in patients with normal renal function (CLcr >80 ml/min) ([3]; moderate renal impairment (CLcr 30 to <50 ml/min)): approximately 15%; AUC relative to patients with normal renal function ([3]; one patient with CLcr <30 ml/min): approximately 1.4 times higher; Mean CL/wt lower than in patients with normal renal function (CLcr >80 ml/min) ([3]; severe renal impairment (CLcr <30 ml/min)): ~38%
